Results from PubChem BioAssay AID1963863 (Molecular Pharmacology Branch, DTP, NCI, 2024).

Tested on: 931267-113-T-J1-PDC KRAS spheroid with HUVEC/MSC, viability
Test: Anticancer human tumor 931267-113-T-J1-PDC patient-derived colon adenocarcinoma cell line growth inhibition [KRAS2]
Conditions: for IC50: curve of first compound; for viability, T/C: stronger effect = lower value
Summary of the method: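 Combination screen of spheroid viability in tumor-cell co-cultures with endothelial (HUVEC) and mesenchymal stem cell stroma. Each agent was tested in half-log dilutions, topping at clinical Cmax or at 10 microM without a known Cmax.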

[1] = second compound 0.1 µM, first compound 0.01 µM
[2] = second compound 0.1 µM, first compound 0.0316 µM
[3] = second compound 0.1 µM, first compound 0.1 µM
[4] = second compound 0.1 µM, first compound 0.316 µM
[5] = second compound 0.1 µM, first compound 1 µM
[6] = second compound 0.1 µM, first compound 3.16 µM
[7] = second compound 0.316 µM, first compound 0.01 µM
[8] = second compound 0.316 µM, first compound 0.0316 µM
[9] = second compound 0.316 µM, first compound 0.1 µM
[10] = second compound 0.316 µM, first compound 0.316 µM
[11] = second compound 0.316 µM, first compound 1 µM
[12] = second compound 0.316 µM, first compound 3.16 µM
[13] = second compound 1 µM, first compound 0.01 µM
[14] = second compound 1 µM, first compound 0.0316 µM
[15] = second compound 1 µM, first compound 0.1 µM
[16] = second compound 1 µM, first compound 0.316 µM
[17] = second compound 1 µM, first compound 1 µM
[18] = second compound 1 µM, first compound 3.16 µM
[19] = second compound 3.16 µM, first compound 0.01 µM
[20] = second compound 3.16 µM, first compound 0.0316 µM
[21] = second compound 3.16 µM, first compound 0.1 µM
[22] = second compound 3.16 µM, first compound 0.316 µM
[23] = second compound 3.16 µM, first compound 1 µM
[24] = second compound 3.16 µM, first compound 3.16 µM
[25] = second compound 10 µM, first compound 0.0316 µM
[26] = second compound 10 µM, first compound 0.1 µM
[27] = second compound 10 µM, first compound 0.316 µM
[28] = second compound 10 µM, first compound 1 µM
[29] = second compound 10 µM, first compound 3.16 µM
[30] = second compound 0.1 µM, first compound 10 µM
[31] = second compound 0.316 µM, first compound 10 µM
[32] = second compound 1 µM, first compound 10 µM
[33] = second compound 3.16 µM, first compound 10 µM
[34] = second compound 10 µM, first compound 10 µM
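Also: compound exposure lasted 7 days before the readout.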
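For viability, T/C in this document: 100% = DMSO vehicle control viability.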

Row | Compound | IC50 (second compound 0.1 µM) [nM] | IC50 (second compound 0.316 µM) [nM] | IC50 (second compound 1 µM) [nM] | IC50 (second compound 3.16 µM) [nM] | viability, T/C [2] [%] | viability, T/C [3] [%] | viability, T/C [4] [%] | viability, T/C [5] [%] | viability, T/C [6] [%] | viability, T/C [8] [%] | viability, T/C [9] [%] | viability, T/C [10] [%] | viability, T/C [11] [%] | viability, T/C [12] [%] | viability, T/C [14] [%] | viability, T/C [15] [%] | viability, T/C [16] [%] | viability, T/C [17] [%] | viability, T/C [18] [%] | viability, T/C [20] [%] | also measured
1 | CC1COCCN1c1cc(-c2ccnn2C)c2ccnc(-c3ccn[nH]3)c2n1 (stereo not given) + C=CC(=O)N1CCN(c2nc(=O)n(-c3c(C)ccnc3C(C)C)c3nc(-c4c(O)cccc4F)c(F)cc23)C(C)C1 | 42 | 50.4 | 44.4 | 53.5 | 58 | 25.9 | 17.3 | 20 | 19.7 | 68.7 | 22.5 | 18.1 | 19.9 | 20.4 | 59.5 | 27.5 | 21.1 | 22.1 | 22.6 | 71.4 | IC50 (second compound 10 µM): 28.1 nM; viability, T/C [1]: 95.5%; viability, T/C [7]: 90.1%; viability, T/C [13]: 122%; viability, T/C [19]: 117%; viability, T/C [21]: 24.8%; viability, T/C [22]: 18.4%; viability, T/C [23]: 21.8%; viability, T/C [24]: 22.1%; viability, T/C (second compound 10 µM, first compound 0.01 µM): 92.8%; viability, T/C [25]: 45.1%; viability, T/C [26]: 24.1%; viability, T/C [27]: 23.9%; viability, T/C [28]: 24.2%; viability, T/C [29]: 19.9%
2 | CC1OCC2(CCN(c3cnc(Sc4ccnc(N)c4Cl)c(N)n3)CC2)C1N (stereo not given) + C=CC(=O)N1CCN(c2nc(=O)n(-c3c(C)ccnc3C(C)C)c3nc(-c4c(O)cccc4F)c(F)cc23)C(C)C1 | > 10000 | > 10000 | > 10000 | > 10000 | 86.7 | 73.4 | 69.9 | 64.8 | 67.5 | 119 | 92.3 | 83.3 | 73.6 | 80.4 | 118 | 87.8 | 79 | 64.1 | 78.7 | 99.7 | IC50 (second compound 10 µM): > 10000 nM; viability, T/C [30]: 77.4%; viability, T/C [31]: 83.5%; viability, T/C [32]: 78.9%; viability, T/C [21]: 91.8%; viability, T/C [22]: 100%; viability, T/C [23]: 87.3%; viability, T/C [24]: 70.1%; viability, T/C [33]: 82.3%; viability, T/C [25]: 92.3%; viability, T/C [26]: 74.8%; viability, T/C [27]: 79.7%; viability, T/C [28]: 75.6%; viability, T/C [29]: 74.1%; viability, T/C [34]: 67%
3 | Cn1nccc1Nc1nccc(-c2cc3c(s2)C(C)(C)N(CCN2CCOCC2)C3=O)n1 + C=CC(=O)N1CCN(c2nc(=O)n(-c3c(C)ccnc3C(C)C)c3nc(-c4c(O)cccc4F)c(F)cc23)C(C)C1 | 568 | 601 | 598 | 611 | 94.2 | 90.4 | 63.4 | 38.2 | 5.19 | 109 | 84.2 | 74.9 | 34 | 8.86 | 82 | 104 | 72.8 | 30.6 | 6.74 | 93.3 | IC50 (second compound 10 µM): 703 nM; viability, T/C [30]: 5.01%; viability, T/C [31]: 5.22%; viability, T/C [32]: 6.41%; viability, T/C [21]: 101%; viability, T/C [22]: 81.1%; viability, T/C [23]: 26.6%; viability, T/C [24]: 9.57%; viability, T/C [33]: 9.73%; viability, T/C [25]: 91.2%; viability, T/C [26]: 95.3%; viability, T/C [27]: 74.9%; viability, T/C [28]: 39.3%; viability, T/C [29]: 14.1%; viability, T/C [34]: 11%
4 | CC(=O)OC12COC1CC(O)C1(C)C(=O)C(O)C3=C(C)C(OC(=O)C(O)C(NC(=O)OC(C)(C)C)c4ccccc4)CC(O)(C(OC(=O)c4ccccc4)C21)C3(C)C (stereo not given) + C=CC(=O)N1CCN(c2nc(OCC3CCCN3C)nc3c2CCN(c2cccc4cccc(C)c24)C3)CC1CC#N | > 3160 | > 3160 | 1300 | > 3160 | 99.4 | 89.6 | 82.7 | 72.1 | 82.4 | 109 | 94.7 | 75.8 | 76.7 | 75.5 | 91.4 | 77 | 86 | 54.6 | 34.5 | 104 | IC50 (second compound 0.0316 µM): > 3160 nM; viability, T/C (second compound 0.0316 µM, first compound 0.01 µM): 87.4%; viability, T/C (second compound 0.0316 µM, first compound 0.0316 µM): 86.6%; viability, T/C (second compound 0.0316 µM, first compound 0.1 µM): 76.2%; viability, T/C (second compound 0.0316 µM, first compound 0.316 µM): 91.5%; viability, T/C (second compound 0.0316 µM, first compound 1 µM): 128%; viability, T/C (second compound 0.0316 µM, first compound 3.16 µM): 78.6%; viability, T/C [1]: 106%; viability, T/C [7]: 126%; viability, T/C [13]: 84.5%; viability, T/C [19]: 83.5%; viability, T/C [21]: 102%; viability, T/C [22]: 84.8%; viability, T/C [23]: 91.7%; viability, T/C [24]: 90.1%
